This is an account of results in patent publication US9163021B2, “Pyrrolo[3,2-c]pyridine tropomyosin-related kinase inhibitors” (Pfizer Limited, priority 2012, dated 2015).

Structures are written as SMILES.

As a reminder, the IC50 is the point on the concentration scale where inhibition reaches its midpoint. Read a high IC50 as weaker potency in that assay.

The assay deals with TRKA (Homo sapiens (Human), UniProt P04629). The experiment in a line: Isolated TRK enzyme assay (HTRF KinEASE-TK), PV3144 TrkA enzyme assay. The following applies: arithmetic mean where more than one reading. Type of assay: biochemical. Put shortly: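 Kinase (recombinant His-TrkA cytoplasmic domain, ATP-preactivated 20 min) met compound 20 min, then biotinylated TK substrate (1 µM final) with Mg2+/DTT buffer; HTRF detection.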
Sequence of TRKA (P04629 441-796): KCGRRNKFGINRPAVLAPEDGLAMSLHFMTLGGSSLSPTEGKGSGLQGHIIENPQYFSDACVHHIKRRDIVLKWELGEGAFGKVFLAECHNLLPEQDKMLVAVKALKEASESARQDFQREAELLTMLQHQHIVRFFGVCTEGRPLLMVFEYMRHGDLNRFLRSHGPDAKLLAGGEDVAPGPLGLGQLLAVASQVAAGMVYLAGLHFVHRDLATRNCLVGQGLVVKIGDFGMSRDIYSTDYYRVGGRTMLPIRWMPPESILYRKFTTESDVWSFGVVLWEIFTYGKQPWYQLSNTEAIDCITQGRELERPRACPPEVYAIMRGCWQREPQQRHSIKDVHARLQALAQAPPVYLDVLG
In general terms: Time-resolved FRET reads energy transfer from a long-lived donor to a nearby acceptor.
In turn, `CC(C)n1cc(C(=O)c2ccnc(NC(=O)Cc3cnccn3)c2)c2cnccc21` [Example 110, N-(4-{[1-(propan-2-yl)-1H-pyrrolo[3,2-c]pyridin-3-yl]carbonyl}pyridin-2-yl)-2-(pyrazin-2-yl)acetamide] registered a 50% inhibitory concentration (IC50) of 3330 nM.

`CC(C)c1ccnn1CC(=O)Nc1cc(C(=O)c2cn(C(C)C)c3ccncc23)ccn1` [Example 111, 2-[5-(propan-2-yl)-1H-pyrazol-1-yl]-N-(4-{[1-(propan-2-yl)-1H-pyrrolo[3,2-c]pyridin-3-yl]carbonyl}pyridin-2-yl)acetamide] showed an IC50 of 96.8 nM.

For the compound `Cc1nc(C)n(CC(=O)Nc2cc(C(=O)c3cn(C(C)C)c4ccncc34)ccn2)n1` [Example 112, 2-(3,5-dimethyl-1H-1,2,4-triazol-1-yl)-N-(4-{[1-(propan-2-yl)-1H-pyrrolo[3,2-c]pyridin-3-yl]carbonyl}pyridin-2-yl)acetamide], the half-inhibitory concentration (IC50) worked out at 5110 nM.

Regarding `Cc1cc(C(C)C)nn1CC(=O)Nc1cc(C(=O)c2cn(C(C)C)c3ccncc23)ccn1` [Example 113, 2-[5-methyl-3-(propan-2-yl)-1H-pyrazol-1-yl]-N-(4-{[1-(propan-2-yl)-1H-pyrrolo[3,2-c]pyridin-3-yl]carbonyl}pyridin-2-yl)acetamide], inhibition was half-maximal at 20.4 nM (IC50).

Take `Cc1cn(CC(=O)Nc2cc(C(=O)c3cn(C(C)C)c4ccncc34)ccn2)nn1` [Example 114, 2-(4-methyl-1H-1,2,3-triazol-1-yl)-N-(4-{[1-(propan-2-yl)-1H-pyrrolo[3,2-c]pyridin-3-yl]carbonyl}pyridin-2-yl)acetamide]: the IC50 is 289 nM.

`CC(C)n1cc(C(=O)c2cncc(NC(=O)Cc3ccc(F)cc3)c2)c2cnccc21` [Example 115, 2-(4-fluorophenyl)-N-(5-{[1-(propan-2-yl)-1H-pyrrolo[3,2-c]pyridin-3-yl]carbonyl}pyridin-3-yl)acetamide] showed an IC50 of 42 nM.

Compound `CC(C)n1cc(C(=O)c2cncc(NC(=O)Cc3ccc(Cl)cc3)c2)c2cnccc21` [Example 116, 2-(4-chlorophenyl)-N-(5-{[1-(propan-2-yl)-1H-pyrrolo[3,2-c]pyridin-3-yl]carbonyl}pyridin-3-yl)acetamide] yielded an IC50 of 11.3 nM.

Compound `CC(C)n1cc(C(=O)c2cncc(NC(=O)Cc3cccc(CC(C)(C)O)c3)c2)c2cnccc21` [Example 117, 2-(3-(2-hydroxy-2-methylpropyl)phenyl]-N-(5-{[1-(propan-2-yl)-1H-pyrrolo[3,2-c]pyridin-3-yl]carbonyl}pyridin-3-yl)acetamide] gave an IC50 of 39.2 nM.

As to `Cc1nccn1CC(=O)Nc1cncc(C(=O)c2cn(C(C)C)c3ccncc23)c1` [Example 118, 2-(2-methyl-1H-imidazol-1-yl)-N-(5-{[1-(propan-2-yl)-1H-pyrrolo[3,2-c]pyridin-3-yl]carbonyl}pyridin-3-yl)acetamide], it took 9150 nM to reach half-maximal inhibition (IC50).

`CC(C)n1cc(C(=O)c2cncc(NC(=O)Cc3ncccn3)c2)c2cnccc21` [Example 119, N-(5-{[1-(propan-2-yl)-1H-pyrrolo[3,2-c]pyridin-3-yl]carbonyl}pyridin-3-yl)-2-(pyrimidin-2-yl)acetamide] yielded a 50% inhibitory concentration (IC50) of 4900 nM.

As for `Cc1cc(C(C)C)nn1CC(=O)Nc1cncc(C(=O)c2cn(C(C)C)c3ccncc23)c1` [Example 120, 2-(5-methyl-3-(propan-2-yl)-1H-pyrazol-1-yl]-N-(5-{[1-(propan-2-yl)-1H-pyrrolo[3,2-c]pyridin-3-yl]carbonyl}pyridin-3-yl)acetamide], the IC50 turned out to be 39.5 nM.

In the case of `Cc1cc(C(F)(F)F)nn1CC(=O)Nc1cncc(C(=O)c2cn(C(C)C)c3ccncc23)c1` [Example 121, 2-(5-methyl-3-(trifluoromethyl)-1H-pyrazol-1-yl]-N(5-{[1-(propan-2-yl)-1H-pyrrolo[3,2-c]pyridin-3-yl]carbonyl}pyridin-3-yl)acetamide], the IC50 stood at 14.3 nM.

Regarding `CC(C)n1cc(C(=O)c2cncc(NC(=O)Cn3cccn3)c2)c2cnccc21` [Example 122, N-(5-{[1-(propan-2-yl)-1H-pyrrolo[3,2-c]pyridin-3-yl]carbonyl}pyridin-3-yl)-2(1H-pyrazol-1-yl)acetamide], the IC50 is 1220 nM.

Compound `CC(C)c1cn(CC(=O)Nc2cncc(C(=O)c3cn(C(C)C)c4ccncc34)c2)nn1` [Example 123] gave an IC50 of 59.5 nM.

For the compound `CC(C)c1ccnn1CC(=O)Nc1cncc(C(=O)c2cn(C(C)C)c3ccncc23)c1` [Example 124, 2-(5-(propan-2-yl)-1H-pyrazol-1-yl]-N-(5-{[1-(propan-2-yl)-1H-pyrrolo[3,2-c]pyridin-3-yl]carbonyl}pyridin-3-yl)acetamide], the IC50 amounted to 198 nM.

Regarding `CC(C)n1cc(C(=O)c2cncc(NC(=O)Cc3cccc(Cl)c3)c2)c2cnccc21` [Example 125, 2-(3-chlorophenyl)-N-(5-{[1-(propan-2-yl)-1H-pyrrolo[3,2-c]pyridin-3-yl]carbonyl}pyridin-3-yl)acetamide], the midpoint of inhibition, the IC50, lay at 707 nM.

`CC(C)n1cc(C(=O)c2cncc(NC(=O)Cc3cccc(Cl)c3)c2)c2cnccc21` [Example 126, 2-(3-chlorophenyl)-N-(5-{[1-(propan-2-yl)-1H-pyrrolo[3,2-c]pyridin-3-yl]carbonyl}pyridin-3-yl)acetamide]: the half-inhibitory concentration (IC50) was 28.6 nM.

Compound `CC(C)n1cc(C(=O)c2cncc(NC(=O)Cn3cc(Cl)cn3)c2)c2cnccc21` [Example 127, 2-(4-chloro-1H-pyrazol-1-yl)-N-(5-{[1-(propan-2-yl)-1H-pyrrolo[3,2-c]pyridin-3-yl]carbonyl}pyridin-3-yl)acetamide] came in with a 50% inhibitory concentration (IC50) of 41.8 nM.

Take `COc1ccc(CC(=O)Nc2cncc(C(=O)c3cn(C(C)C)c4ccncc34)c2)cc1` [Example 128, 2-(4-methoxyphenyl)-N-(5-{[1-(propan-2-yl)-1H-pyrrolo[3,2-c]pyridin-3-yl]carbonyl}pyridin-3-yl)acetamide]: inhibition was half-maximal at 147 nM (IC50).

In the case of `CC(C)n1cc(C(=O)c2cncc(NC(=O)Cc3ccccc3)c2)c2cnccc21` [Example 130, 2-phenyl-N-(5-{[1-(propan-2-yl)-1H-pyrrolo[3,2-c]pyridin-3-yl]carbonyl}pyridin-3-yl)acetamide], the half-maximal inhibitory concentration (IC50) was 161 nM.

`Cc1cc(C)n(CC(=O)Nc2cncc(C(=O)c3cn(C(C)C)c4ccncc34)c2)n1` [Example 131, 2-(3,5-dimethyl-1H-pyrazol-1-yl)-N-(5-{[1-(propan-2-yl)-1H-pyrrolo[3,2-c]pyridin-3-yl]carbonyl}pyridin-3-yl)acetamide]: 92.8 nM corresponded to half-maximal inhibition (IC50).

The compound `Cc1cn(CC(=O)Nc2cncc(C(=O)c3cn(C(C)C)c4ccncc34)c2)nn1` [Example 132, 2-(4-methyl-1H-1,2,3-triazol-1-yl)-N-(5-{[1-(propan-2-yl)-1H-pyrrolo[3,2-c]pyridin-3-yl]carbonyl}pyridin-3-yl)acetamide] had a half-maximal inhibitory concentration (IC50) of 505 nM.

With `CC(C)n1cc(C(=O)c2cncc(NC(=O)Cc3cnccn3)c2)c2cnccc21` [Example 133, N-(5-{[1-(propan-2-yl)-1H-pyrrolo[3,2-c]pyridin-3-yl]carbonyl}pyridin-3-yl)-2-(pyrazin-2-yl)acetamide], the half-inhibitory concentration (IC50) stood at 4340 nM.

In the case of `Cc1ccn(CC(=O)Nc2cncc(C(=O)c3cn(C(C)C)c4ccncc34)c2)n1` [Example 134, 2-(3-methyl-1H-pyrazol-1-yl)-N-(5-{[1-(propan-2-yl)-1H-pyrrolo[3,2-c]pyridin-3-yl]carbonyl}pyridin-3-yl)acetamide], half-maximal inhibition (IC50) was put at 284 nM.

`Cc1ccnn1CC(=O)Nc1cncc(C(=O)c2cn(C(C)C)c3ccncc23)c1` [Example 135, 2-(5-methyl-1H-pyrazol-1-yl)-N-(5-{[1-(propan-2-yl)-1H-pyrrolo[3,2-c]pyridin-3-yl]carbonyl}pyridin-3-yl)acetamide] yielded a half-maximal inhibitory concentration (IC50) of 2600 nM.

For the compound `Cc1cc(CC(=O)Nc2cncc(C(=O)c3cn(C(C)C)c4ccncc34)c2)[nH]n1` [Example 136, 2(3-methyl-1H-pyrazol-5-yl)-N-(5-{[1-(propan-2-yl)-1H-pyrrolo[3,2-c]pyridin-3-yl]carbonyl}pyridin-3-yl)acetamide], half-maximal inhibition (IC50) was put at 268 nM.

Turning to `Cc1nc(C)n(CC(=O)Nc2cncc(C(=O)c3cn(C(C)C)c4ccncc34)c2)n1` [Example 137, 2-(3,5-dimethyl-1H-1,2,4-triazol-1-yl)-N-(5-{[1-(propan-2-yl)-1H-pyrrolo[3,2-c]pyridin-3-yl]carbonyl}pyridin-3-yl)acetamide], it took 9800 nM to reach half-maximal inhibition (IC50).

Compound `CC(C)n1cc(C(=O)c2ccnc(NC(=O)Cc3ccc(C#N)cn3)c2)c2cnccc21` [Example 138, 2(5-cyanopyridin-2-yl)-N-(4-{[1-(propan-2-yl)-1H-pyrrolo[3,2-c]pyridin-3-yl]carbonyl}pyridin-2-yl)acetamide] showed an IC50 of 45.3 nM.

Compound `CC(C)n1cc(C(=O)c2cncc(NC(=O)Cc3ccc(C#N)cn3)c2)c2cnccc21` [Example 139, 2-(5-cyanopyridin-2-yl)-N-(5-{[1-(propan-2-yl)-1H-pyrrolo[3,2-c]pyridin-3-yl]carbonyl}pyridin-3-yl)acetamide] showed an IC50 of 100 nM.

Regarding `CC(C)n1cc(C(=O)c2cc(NC(=O)Cc3ccc(C#N)cn3)ccn2)c2cnccc21` [Example 140, 2-(5-cyanopyridin-2-yl)-N-(2-{[1-(propan-2-yl)-1H-pyrrolo[3,2-c]pyridin-3-yl]carbonyl}pyridin-4-yl)acetamide], 207 nM corresponded to half-maximal inhibition (IC50).

Compound `O=C(Cc1ccc(C(F)(F)F)cc1)Nc1cc(C(=O)c2cn(CCO)c3ccncc23)ccn1` [Example 141, N-(4-{[1-(2-hydroxyethyl)-1H-pyrrolo[3,2-c]pyridin-3-yl]carbonyl}pyridin-2-yl)-2-[4-(trifluoromethyl)phenyl]acetamide] returned an IC50 of 20.2 nM.

The compound `O=C(Nc1cc(C(=O)c2cn(CCO)c3ccncc23)ccn1)c1cccc(OC(F)(F)F)c1` [Example 142, N-(4-{[1-(2-hydroxyethyl)-1H-pyrrolo[3,2-c]pyridin-3-yl]carbonyl}pyridin-2-yl)-3-(trifluoromethoxy)benzamide] returned an IC50 of 29.9 nM.

Turning to `O=C(Cc1ccccc1OC(F)(F)F)Nc1cc(C(=O)c2cn(CCO)c3ccncc23)ccn1` [Example 143, N-(4-{[1-(2-hydroxyethyl)-1H-pyrrolo[3,2-c]pyridin-3-yl]carbonyl}pyridin-2-yl)-2-[2-(trifluoromethoxy)phenyl]acetamide], the IC50 is 986 nM.
